Experiment [1] concerns the target E. coli DNA gyrase (Escherichia coli, UniProt P0AES4+P0AES6). The experiment is classed as biochemical.
The target of experiment [2] is S. aureus DNA gyrase (Staphylococcus aureus, UniProt P0A0K8+P20831). The experiment is classed as biochemical.
Chain of S. aureus DNA gyrase (P20831 whole entry): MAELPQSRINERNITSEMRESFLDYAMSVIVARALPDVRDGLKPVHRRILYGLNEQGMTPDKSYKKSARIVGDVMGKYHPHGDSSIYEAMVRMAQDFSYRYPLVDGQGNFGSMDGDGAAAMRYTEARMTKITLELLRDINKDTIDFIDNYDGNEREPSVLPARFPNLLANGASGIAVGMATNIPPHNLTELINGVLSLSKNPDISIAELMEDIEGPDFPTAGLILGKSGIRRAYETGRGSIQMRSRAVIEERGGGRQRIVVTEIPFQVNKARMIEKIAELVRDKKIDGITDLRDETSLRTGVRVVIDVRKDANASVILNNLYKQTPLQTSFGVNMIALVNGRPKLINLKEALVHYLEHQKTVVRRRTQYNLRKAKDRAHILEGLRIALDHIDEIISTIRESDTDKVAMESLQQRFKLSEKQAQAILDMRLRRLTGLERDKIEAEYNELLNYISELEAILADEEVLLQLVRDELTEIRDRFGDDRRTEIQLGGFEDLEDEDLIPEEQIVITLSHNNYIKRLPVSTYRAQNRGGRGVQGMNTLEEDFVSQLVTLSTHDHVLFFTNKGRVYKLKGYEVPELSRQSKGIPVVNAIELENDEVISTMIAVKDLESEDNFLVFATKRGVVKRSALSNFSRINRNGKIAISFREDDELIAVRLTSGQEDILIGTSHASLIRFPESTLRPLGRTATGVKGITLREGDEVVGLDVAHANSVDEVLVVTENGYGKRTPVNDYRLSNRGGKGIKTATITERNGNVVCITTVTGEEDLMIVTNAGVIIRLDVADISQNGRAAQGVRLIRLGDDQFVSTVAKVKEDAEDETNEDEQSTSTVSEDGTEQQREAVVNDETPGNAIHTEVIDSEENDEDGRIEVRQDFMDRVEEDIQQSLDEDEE
Chain of S. aureus DNA gyrase (P0A0K8 whole entry): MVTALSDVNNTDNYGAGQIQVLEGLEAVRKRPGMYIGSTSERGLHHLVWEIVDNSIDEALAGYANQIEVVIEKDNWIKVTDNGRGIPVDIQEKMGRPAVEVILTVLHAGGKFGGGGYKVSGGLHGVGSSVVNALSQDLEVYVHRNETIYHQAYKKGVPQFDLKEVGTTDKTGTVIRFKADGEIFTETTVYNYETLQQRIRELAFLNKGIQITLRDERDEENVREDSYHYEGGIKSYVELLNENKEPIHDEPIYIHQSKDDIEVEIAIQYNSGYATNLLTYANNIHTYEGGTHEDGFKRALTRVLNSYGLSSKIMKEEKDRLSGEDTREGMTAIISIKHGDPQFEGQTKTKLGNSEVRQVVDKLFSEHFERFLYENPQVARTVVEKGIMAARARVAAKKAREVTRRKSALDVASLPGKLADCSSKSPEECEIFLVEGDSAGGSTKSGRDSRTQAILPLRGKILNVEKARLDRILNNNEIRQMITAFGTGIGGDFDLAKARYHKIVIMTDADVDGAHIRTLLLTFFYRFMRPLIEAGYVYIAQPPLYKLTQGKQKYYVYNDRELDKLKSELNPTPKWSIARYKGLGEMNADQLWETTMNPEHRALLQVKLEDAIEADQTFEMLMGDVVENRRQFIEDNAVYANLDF

Chain of E. coli DNA gyrase (P0AES4 whole entry, one chain of several): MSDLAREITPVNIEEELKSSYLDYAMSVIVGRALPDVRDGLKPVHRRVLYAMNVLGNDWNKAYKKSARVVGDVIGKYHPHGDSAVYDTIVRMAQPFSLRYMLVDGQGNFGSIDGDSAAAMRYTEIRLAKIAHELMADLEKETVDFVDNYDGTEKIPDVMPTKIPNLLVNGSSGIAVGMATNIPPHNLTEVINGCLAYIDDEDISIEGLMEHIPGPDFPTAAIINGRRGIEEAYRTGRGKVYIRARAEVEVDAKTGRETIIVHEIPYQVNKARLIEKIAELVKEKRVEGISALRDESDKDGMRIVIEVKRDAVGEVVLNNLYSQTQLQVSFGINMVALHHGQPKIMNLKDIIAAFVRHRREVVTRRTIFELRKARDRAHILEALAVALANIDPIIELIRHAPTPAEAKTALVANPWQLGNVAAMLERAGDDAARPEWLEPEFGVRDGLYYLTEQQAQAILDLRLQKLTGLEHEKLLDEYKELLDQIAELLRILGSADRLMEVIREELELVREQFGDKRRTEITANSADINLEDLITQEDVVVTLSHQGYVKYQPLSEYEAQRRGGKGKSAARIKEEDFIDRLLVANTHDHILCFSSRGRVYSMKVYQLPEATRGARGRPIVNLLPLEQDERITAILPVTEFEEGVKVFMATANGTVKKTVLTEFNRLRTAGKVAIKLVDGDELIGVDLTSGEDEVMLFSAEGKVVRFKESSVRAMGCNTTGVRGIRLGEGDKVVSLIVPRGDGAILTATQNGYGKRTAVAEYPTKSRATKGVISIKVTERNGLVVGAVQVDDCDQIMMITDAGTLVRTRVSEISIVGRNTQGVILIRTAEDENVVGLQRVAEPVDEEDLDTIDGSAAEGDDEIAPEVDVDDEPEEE

For `O=c1oc2ccccc2c2[nH]c(CNCC3CCN(c4nccc5ccc(F)cc45)C3)cc12` (single isomer, unassigned) [Compound 180, 2-[({[1-(7-fluoroisoquinolin-1-yl)pyrrolidin-3-yl]methyl}amino)methyl][1]benzopyrano[4,3-b]pyrrol-4(1H)-one], in experiment [1], the “E. coli % inhibition DNA gyrase” value is recorded as 58%. For the same compound, the “S. aureus % inhibition DNA gyrase” value in experiment [2] came out at 90%.
In the case of `O=c1oc2ccccc2c2[nH]c(CNCC3CN(c4nccc5ccc(F)cc45)CCO3)cc12` (single isomer, unassigned) [Compound 182, 2-[({[4-(7-fluoroisoquinolin-1-yl)morpholin-2-yl]methyl}amino)methyl][1]benzopyrano[4,3-b]pyrrol-4(1H)-one], the “E. coli % inhibition DNA gyrase” value in experiment [1] was found to be 61%. Moreover, in experiment [2], the “S. aureus % inhibition DNA gyrase” value is given as 92%.

(Values after patent US10640488B2, “Antibacterial compounds” (AZIENDE CHIMICHE RIUNITE ANGELINI FRANCESCO A.C.R.A.F. …, priority 2016, dated 2020).)
